For orientation: EC50 means the concentration at which the effect is half-maximal. Broadly, the AC50 is the concentration giving half of the maximal activity seen. As a reminder, the CC50 is the concentration at which the toxic effect on the cells reaches its halfway point.

Active and inactive are the calls of the source. Cut-off read from the data, not from the text of the source, for most assays here: actives have a measured EC50 and inactives only a lower limit.

Results on 48 molecules are retold here after ChEMBL document CHEMBL1201862, “PubChem BioAssay data set” (2004).

The nature of assay [1]: Luminescence Cell-Based Dose Confirmation HTS to Identify Inhibitors of Platelet Dense Granule Release. [Related pubchem assays: 1663 (Primary HTS), 1678 (Summary of Project)]. It is filed as functional.
Assay [2] addresses Luciferin 4-monooxygenase (Photinus pyralis, UniProt P08659). Briefly: firefly luciferase enzyme inhibitors, dose response, biochemical, luminescence (AID 1891).
A short description of assay [3]: Luminescence Cell-Based Dose Retest to Confirm Inhibitors of Cancer Stem Cells. [Related pubchem assays (depositor defined):AID2717, AID2721]. It is filed as functional. To be noted: Homo sapiens.
The nature of assay [4]: cytotoxicity toward NIH3T3 fibroblasts, dose response, counter-screen, cell-based, ATP luminescence, mouse fibroblasts (AID 2010).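 Note: cells exposed to compound for about 90 hours before reading.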 The assay is classed as functional. (A counterscreen serves to expose hits that act by an unwanted route or on another target.)
Assay [5] in a line: inhibitors of intracellular T. cruzi replication, confirmation, NIH3T3 host cells, beta-gal luminescence (AID 2044).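 Note: intracellular parasites grown in NIH/3T3 mouse fibroblasts as host cells; luminescent beta-galactosidase reporter signal from transgenic T. cruzi replicating inside host cells; inhibitors lower the luminescence signal.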 The assay is classed as functional, cell-based.
A further assay deals with Cytochrome P450 2C9 (Homo sapiens, UniProt P11712).
Sequence of Cytochrome P450 2C9 (P11712 whole entry): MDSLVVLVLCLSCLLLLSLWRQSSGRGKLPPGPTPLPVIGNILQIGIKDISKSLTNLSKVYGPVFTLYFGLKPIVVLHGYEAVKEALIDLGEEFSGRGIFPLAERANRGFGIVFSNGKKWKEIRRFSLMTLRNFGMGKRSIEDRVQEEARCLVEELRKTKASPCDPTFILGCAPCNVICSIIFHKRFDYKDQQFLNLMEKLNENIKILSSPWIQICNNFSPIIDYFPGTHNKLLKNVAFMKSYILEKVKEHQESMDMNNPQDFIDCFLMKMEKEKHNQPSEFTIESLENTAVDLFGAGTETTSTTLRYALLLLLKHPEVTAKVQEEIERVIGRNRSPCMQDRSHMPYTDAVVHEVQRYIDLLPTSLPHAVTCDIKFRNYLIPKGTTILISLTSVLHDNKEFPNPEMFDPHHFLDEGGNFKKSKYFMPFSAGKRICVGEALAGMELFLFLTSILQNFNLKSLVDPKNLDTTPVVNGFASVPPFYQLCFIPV
For the next assay, the target named is Cytochrome P450 3A4 (Homo sapiens, UniProt P08684).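 Note: CYP3A4 tested as one member of a cytochrome P450 panel screen.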
Sequence of Cytochrome P450 3A4 (P08684 whole entry): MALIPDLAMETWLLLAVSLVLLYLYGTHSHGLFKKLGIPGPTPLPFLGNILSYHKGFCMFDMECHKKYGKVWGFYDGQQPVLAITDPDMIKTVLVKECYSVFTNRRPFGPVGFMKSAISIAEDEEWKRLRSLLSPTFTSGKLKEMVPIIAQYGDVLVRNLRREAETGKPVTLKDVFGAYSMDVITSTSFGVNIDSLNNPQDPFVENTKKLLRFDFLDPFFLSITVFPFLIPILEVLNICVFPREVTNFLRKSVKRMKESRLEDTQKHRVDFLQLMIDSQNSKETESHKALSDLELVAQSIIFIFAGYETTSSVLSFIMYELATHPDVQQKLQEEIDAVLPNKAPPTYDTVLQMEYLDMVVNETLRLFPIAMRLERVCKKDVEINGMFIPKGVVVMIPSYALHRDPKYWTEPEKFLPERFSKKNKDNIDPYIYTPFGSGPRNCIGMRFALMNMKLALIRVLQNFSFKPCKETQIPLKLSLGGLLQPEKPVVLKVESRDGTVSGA
A short description of assay [6]: Luminescence Cell-Based Dose Response HTS to Identify Inhibitors of 5'UTR Stem-Loop Driven Prion Protein mRNA Translation in H4 Neuroglioblastoma Cells. [Related pubchem assays: 1827 (Project Summary), 1813 (Primary HTS)]. It is filed as functional.
Assay [7] in a line: inhibitors of firefly luciferase expression or activity, dose response, H4 neuroglioma cells, luminescence (AID 1990). The assay is classed as functional, cell-based.
Assay [8] is described as follows: inhibitors of SNCA 5'UTR-driven reporter translation, confirmation, H4 neuroglioma cells, luminescence (AID 1988). It is filed as functional, cell-based.
Assay [9] concerns Streptococcus sp. 'group A'. The experiment in a line: growth inhibition of control SK(-) GAS strain, dose response, counter-screen for streptokinase expression inhibitor project, luminescence, kanamycin, BacTiterGlo, confirmation (AID 1900). It is filed as functional, organism-based.
In the next assay the test system is Streptococcus. The experiment in a line: Group A Streptococcus viability loss, dose response, counter-screen for streptokinase expression inhibitor project, luminescence, BacTiterGlo (AID 1915).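 Note: potency for reduction of bacterial viability or growth.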 The assay is classed as functional, organism-based.
Another assay deals with T1, Streptokinase A (Streptococcus pyogenes serotype M1, UniProt P10520).
T1 sequence (P10520 whole entry): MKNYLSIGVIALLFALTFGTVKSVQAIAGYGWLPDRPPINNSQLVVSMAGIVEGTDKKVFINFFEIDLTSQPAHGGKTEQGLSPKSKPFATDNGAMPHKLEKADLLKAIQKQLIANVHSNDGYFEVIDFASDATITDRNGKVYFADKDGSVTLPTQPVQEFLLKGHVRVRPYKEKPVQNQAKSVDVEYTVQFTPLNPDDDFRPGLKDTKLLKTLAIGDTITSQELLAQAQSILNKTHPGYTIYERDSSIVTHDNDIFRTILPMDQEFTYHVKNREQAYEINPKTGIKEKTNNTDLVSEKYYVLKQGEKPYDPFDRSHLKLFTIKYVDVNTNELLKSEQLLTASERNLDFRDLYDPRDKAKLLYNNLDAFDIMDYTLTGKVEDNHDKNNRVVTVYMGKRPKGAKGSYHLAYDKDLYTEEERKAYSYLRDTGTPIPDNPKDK
Briefly: S. pyogenes streptokinase expression inhibitors, potency, dose response, plasminogen activation absorbance, OD405 (AID 1914).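 Note: secreted streptokinase activity via plasminogen activation per viability signal from cell pellet.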 The assay is classed as functional, Streptococcus pyogenes M1 GAS.

Assay [10] can be described thus: HEp-2 cell cytotoxicity, dose response, cytotoxicity control for RSV inhibitor project, HTS (AID 2410). It is filed as functional. To be noted: human respiratory syncytial virus.

Sequence of Luciferin 4-monooxygenase (P08659 whole entry): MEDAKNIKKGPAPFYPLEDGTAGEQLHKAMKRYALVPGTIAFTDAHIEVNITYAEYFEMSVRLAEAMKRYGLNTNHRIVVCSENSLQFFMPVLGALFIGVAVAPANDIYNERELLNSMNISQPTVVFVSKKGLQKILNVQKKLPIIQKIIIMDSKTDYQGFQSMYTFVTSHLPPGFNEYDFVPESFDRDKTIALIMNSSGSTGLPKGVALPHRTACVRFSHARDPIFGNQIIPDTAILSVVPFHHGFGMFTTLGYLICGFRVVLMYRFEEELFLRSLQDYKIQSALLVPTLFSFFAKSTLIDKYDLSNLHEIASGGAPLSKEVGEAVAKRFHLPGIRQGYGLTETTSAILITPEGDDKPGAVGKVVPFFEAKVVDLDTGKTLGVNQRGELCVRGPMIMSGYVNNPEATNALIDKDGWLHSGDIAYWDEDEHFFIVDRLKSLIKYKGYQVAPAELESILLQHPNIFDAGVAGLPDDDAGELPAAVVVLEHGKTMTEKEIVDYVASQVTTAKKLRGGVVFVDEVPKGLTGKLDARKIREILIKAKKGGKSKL

Consider `CCCc1cc(C(=O)N2CCCC(N3CCN(c4ccccc4F)CC3)C2)n(C)n1` (configuration not stated), for which the EC50 is 21.6 µM (active) in assay [1] and > 112 µM (not active) in assay [2].

Take `Cc1ccc(S(=O)(=O)NCc2ccc(C(=O)NC3CC3)cc2)cc1`: the concentration giving a half-maximal response (EC50) in assay [1] was 28.1 µM (active); in assay [2] it was > 112 µM (not active). For `O=C(N/N=C/c1ccc[nH]1)c1sc2ccccc2c1Cl`, in [3], the AC50 is 1.94 µM (active). Moreover, the results for the EC50 in assay [4] and in assay [5] were > 30 µM (not active) and 2.3 µM (active), respectively. For `COc1ccc(C(=O)C2CCCN(Cc3cc(C)c(O)c(C)c3)C2)c(OC)c1` (configuration not stated), the AC50 in assay [3] is 0.502 µM (active).

As for `CCC(C)(C)c1ccc(Oc2cccc(C(=O)O)c2)cc1`, the concentration at half-maximal activity (AC50) at Cytochrome P450 2C9 is 5.01 µM (inconclusive). Regarding `COc1cc(C)ccc1OCCCOc1ccccc1Cl`, the figures for the AC50 at Cytochrome P450 3A4 and on Cytochrome P450 2C9 were 17.8 µM (inconclusive) and 12.6 µM (inconclusive), respectively. Consider `COc1cc2c(cc1OC)C(C(=O)Nc1ccc3c(c1)OCCO3)C(c1cccnc1)N(C)C2=O` (configuration not stated), for which, on Cytochrome P450 2C9, the half-maximal activity concentration (AC50) was 11.2 µM (inconclusive). For `CCOc1ccc(S(=O)(=O)N2CCC(C(=O)NCc3cccnc3)CC2)cc1Cl`, the 50% effective concentration (EC50) in assay [6] is > 120 µM (not active); in [7] it was 17.7 µM (active); in assay [8], > 120 µM (not active).

For `COc1ccccc1OCC(=O)Nc1c2c(nn1-c1ccc(F)cc1)CS(=O)(=O)C2`, the EC50 (in assay [9]; with Streptococcus; at Streptokinase A) was > 150 µM (not active) each time.

As for `O=C(c1cc2ccccc2o1)N(Cc1nnc(-c2ccccc2Cl)o1)C1CC1`, the CC50 in assay [10] is 25.9 µM (active). Consider `Cc1ccc(C)c(CN2CCCN(Cc3cc(C)ccc3C)S2(=O)=O)c1`, for which the EC50 was 19.8 µM (active) in assay [9], > 150 µM (not active) in the assay with Streptococcus and 19.7 µM (active) at Streptokinase A.

As to `CN1/C(=C\C(=O)Nc2ccc(Cl)cc2)C(C)(C)c2ccccc21`, the figures for the EC50 (in assay [9]; with Streptococcus; at Streptokinase A) were 9.32 µM (active), 11.5 µM (active) and > 150 µM (not active), respectively. On to `CN1CCN(C(=O)CCN2C(=O)/C(=C/c3cccc(Br)c3)SC2=S)CC1`, for which, in assay [10], the CC50 was 18.8 µM (active). As to `COc1ccc(/C=N\NC(=O)c2ccc(F)cc2)cc1COc1ccccc1C(N)=O`, the EC50 in assay [1] and in assay [2] was > 112 µM (not active) throughout. As to `COc1ccc(C(=O)OCCOc2cccc(Cl)c2)cc1S(=O)(=O)N1CCOCC1`, the EC50 in [1] and in assay [2] was > 112 µM (not active) in each case. For `COc1ccc(NS(=O)(=O)c2cc(NC(=O)c3ccc(O)nc3)ccc2N2CCCC2)cc1`, in assay [3], the AC50 was 0.952 µM (active). Take `CCC/C(=C1/c2ccccc2C(=O)N1c1ccccc1)c1ccc2c(c1)OCCO2`: the AC50 in assay [3] was 3.85 µM (active). `COc1ccc(OC)c(-n2c(SCC(N)=O)nnc2-c2c[nH]c3ccccc23)c1`: the EC50 in [1] and in assay [2] was > 112 µM (not active) throughout.

As for `CCc1c(C)nc2cc(-c3ccc(OC)c(OC)c3)nn2c1N1CCC(C)CC1`, the half-maximal effective concentration (EC50) in assay [9] is 5.05 µM (active); in the assay with Streptococcus it was 14.7 µM (active); at Streptokinase A, 16.6 µM (active). Consider `CC(/C=N/NC(=O)c1nnn(-c2nonc2N)c1C(C)C)=C\c1ccccc1`, for which, in assay [10], the CC50 was 39.5 µM (active). Turning to `CCOC(=O)C(=O)NNc1ccc(Cl)cc1`, the AC50 in assay [3] was 0.79 µM (active). On to `O=C(c1cc(-c2ccc(Br)cc2)nc2ccccc12)N1CCN(c2ccccc2O)CC1`, for which the EC50 was 7.53 µM (active) in [9], 25.4 µM (inconclusive) in the assay on Streptococcus and 29.2 µM (active) at Streptokinase A. Turning to `O=[N+]([O-])c1ccc(S(=O)(=O)Nc2cccc(-c3ccc(N4CCCC4)nn3)c2)cc1`, in assay [10], the CC50 is 24.5 µM (active).

For the molecule `CCOC(=O)c1ccc(NC2c3ccccc3C(=O)N2c2cccnc2)cc1` (configuration not stated), the concentration for a half-maximal effect (EC50) in assay [6] was > 120 µM (not active); in [7], 20 µM (active); in [8], 9.83 µM (active).

In the case of `Brc1cccc(OCCN2CCc3ccccc3C2)c1`, the AC50 in [3] is 24.9 µM (active).

`CCC(C)Nc1nc(N)c([N+](=O)[O-])c(Nc2ccccc2OC)n1` (configuration not stated): the concentration giving a half-maximal response (EC50) in [6] was > 120 µM (not active); in assay [7], 13.5 µM (active); in [8] it was > 120 µM (not active). `CCOC(=O)Cn1c(=O)oc2cc(S(=O)(=O)NCCc3ccc(OCC)c(OCC)c3)ccc21`: the AC50 at Cytochrome P450 2C9 was 0.00562 µM (inconclusive). For `COCCn1c(=O)c(C)nc2cnc(Nc3cccc(OC)c3)nc21`, the AC50 at Cytochrome P450 2C9 is 39.8 µM (inconclusive). For `C/C(=N\NC(=O)C1CC1)c1ccc(C(C)(C)C)cc1`, in assay [10], the CC50 is 34.3 µM (active). As for `Cc1cc(=O)n2nc(N3CCCC(C(=O)NCc4ccccc4)C3)sc2n1` (configuration not stated), the EC50 in [1] and in assay [2] was > 112 µM (not active) in each case.

Take `CC1(C(=O)OCC(=O)Nc2nc(-c3ccc(F)c(F)c3)cs2)CC1(Cl)Cl` (configuration not stated): the results for the EC50 (in assay [9]; in the assay with Streptococcus; on Streptokinase A) were 8.61 µM (active), 11.8 µM (active) and 7.2 µM (active), respectively.

For the molecule `CCc1ccc(-c2cc(C(=O)N/N=C/c3c[nH]c4ccccc34)[nH]n2)cc1`, the EC50 in [9] was 7.37 µM (active); in the assay with Streptococcus, 6.73 µM (active); on Streptokinase A it was > 150 µM (not active). Also, the AC50 in [3] was 2.97 µM (active).

For the molecule `COC(=O)c1[nH]c2cc(OC)ccc2c1NC(=O)CN1CCOCC1`, the EC50 in [1] and in assay [2] was > 112 µM (not active) throughout. For the molecule `O=c1cc(O)cc(/C=C\c2ccc(O)c(O)c2)o1`, the figures for the AC50 on Cytochrome P450 3A4 and on Cytochrome P450 2C9 were 3.16 µM (inconclusive) and 25.1 µM (inconclusive), respectively. Take `CC1=C(C(=O)OC2CCCCC2)C(c2ccc(C)o2)C2=C(O)CC(C)(C)CC2=N1` (configuration not stated): the AC50 in assay [3] is 1.38 µM (active). For the molecule `O=C(Nc1ccccc1N1CCCC1)C1CCN(S(=O)(=O)c2ccccc2C(F)(F)F)CC1`, the CC50 in [10] was > 50 µM (active). Consider `Cn1cc(S(=O)(=O)N2CCCC2)cc1C(=O)NCCc1ccccc1`, for which the EC50 in assay [1] and in assay [2] was > 112 µM (not active) in each case. For the molecule `Cc1noc(C)c1CSc1nc2ccccc2nc1NS(=O)(=O)c1ccc(Cl)cc1`, the concentration giving a half-maximal response (EC50) in assay [9] is 6.49 µM (active); in the assay with Streptococcus, 13.7 µM (active); on Streptokinase A, 5.51 µM (active). For the same molecule, the AC50 in assay [3] is 3.64 µM (active). With `COC(=O)C(NS(=O)(=O)c1ccc(NC(C)=O)cc1)C(C)C` (configuration not stated), the AC50 on Cytochrome P450 2C9 was 1.58 µM (inconclusive).

On to `O=C(CN1CCN(c2cccc(C(F)(F)F)c2)CC1)Nc1cccc(C(F)(F)F)c1`, for which the CC50 in assay [10] is > 50 µM (active). On to `COc1ccc(OCCCC(=O)OC(C)C(=O)Nc2ccc(NC(C)=O)cc2)cc1` (configuration not stated), for which the EC50 in assay [1] and in [2] was > 112 µM (not active) each time.

With `Cc1nc2ccccc2c(=O)n1NC(=O)C1CCC(C(C)(C)C)CC1` (configuration not stated), the concentration giving a half-maximal response (EC50) in assay [6], in assay [7] and in assay [8] was > 120 µM (not active) throughout.

With `CCc1ccc(C(=O)Nc2cccc(-c3nn[nH]n3)c2)s1`, the EC50 in assay [1] was > 112 µM (not active); in assay [2], 3.49 µM (active).

As to `COc1ccc(C(=O)NCCOc2cccc(OC)c2)cc1`, the EC50 in [1] and in assay [2] was > 112 µM (not active) throughout. Consider `O=C(COc1cccc(OC(F)F)c1)Nc1ccc(SC(F)F)cc1`, for which the EC50 in assay [1] and in [2] was > 112 µM (not active) throughout. `Clc1ccccc1Cn1c(/C=C/c2ccco2)nc2ccccc21`: the AC50 in assay [3] was 2.86 µM (active). As to `CCOC(=O)C1CCN(C(=O)c2oc3ccc(S(=O)(=O)N4CCCCCC4)cc3c2C)CC1`, the CC50 in assay [10] was 17.7 µM (active). With `O=C(CN(C(=O)Cn1nnc(-c2ccccc2F)n1)c1cccc2c1CCCC2)NCc1ccccc1`, the EC50 was 11.2 µM (active) in assay [9], > 150 µM (not active) in the assay on Streptococcus and > 150 µM (not active) on Streptokinase A.
